Measurements as given in paper PMC12441834, “Highly Potent and Subtype-Selective Sperm-Specific Potassium Channel SLO3 Inhibitors Display High Tissue Exposure in the Murine Female Reproductive Tract” (ACS Pharmacology & Translational Science, 2025).
Values joined by “and” are separate entries in the source; they are usually repeats but may differ in a detail not shown here. Identical values can stand only once. Like-named read-outs stand apart in the source and are kept apart here.

Tests used:
Opiate δ1 (OP1, DOP) = Opiate δ1 (OP1, DOP) (Homo sapiens, UniProt P41143); experiment: LeadProfilingScreen radioligand binding
Sequence of Opiate δ1 (OP1, DOP) (P41143 whole entry): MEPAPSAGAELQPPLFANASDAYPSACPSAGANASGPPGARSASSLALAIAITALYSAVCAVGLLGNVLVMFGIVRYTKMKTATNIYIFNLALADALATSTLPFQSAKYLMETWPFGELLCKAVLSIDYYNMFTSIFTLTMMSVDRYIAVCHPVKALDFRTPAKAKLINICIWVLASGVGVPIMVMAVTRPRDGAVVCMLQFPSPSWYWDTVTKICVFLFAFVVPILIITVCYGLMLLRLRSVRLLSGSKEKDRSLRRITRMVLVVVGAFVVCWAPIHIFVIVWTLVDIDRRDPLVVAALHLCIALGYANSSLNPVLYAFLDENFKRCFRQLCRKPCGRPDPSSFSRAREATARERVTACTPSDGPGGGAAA

[1] = tested on: Purinergic P2Y, Non-Selective; experiment: LeadProfilingScreen radioligand binding; parameters: species or system rat
Adrenergic α1D = Adrenergic α1D (Homo sapiens, UniProt P25100); experiment: LeadProfilingScreen radioligand binding
Sequence of Adrenergic α1D (P25100 whole entry): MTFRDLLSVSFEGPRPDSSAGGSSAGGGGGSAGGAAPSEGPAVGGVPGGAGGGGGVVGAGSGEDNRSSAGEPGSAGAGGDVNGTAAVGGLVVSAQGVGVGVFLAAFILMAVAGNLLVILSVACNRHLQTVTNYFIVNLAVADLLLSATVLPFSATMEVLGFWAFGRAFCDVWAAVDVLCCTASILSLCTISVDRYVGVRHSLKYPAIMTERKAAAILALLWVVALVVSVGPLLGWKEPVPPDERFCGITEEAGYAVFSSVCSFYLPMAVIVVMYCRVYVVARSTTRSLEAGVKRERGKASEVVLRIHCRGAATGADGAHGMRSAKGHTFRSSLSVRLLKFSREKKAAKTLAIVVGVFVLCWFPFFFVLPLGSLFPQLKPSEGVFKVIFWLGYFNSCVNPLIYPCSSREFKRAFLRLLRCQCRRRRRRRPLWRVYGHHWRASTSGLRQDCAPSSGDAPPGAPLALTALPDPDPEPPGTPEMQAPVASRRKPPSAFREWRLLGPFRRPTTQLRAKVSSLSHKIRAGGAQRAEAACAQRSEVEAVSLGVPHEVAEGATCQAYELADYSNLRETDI

[2] = target: Serotonin (5-Hydroxytryptamine) 5-HT2B (Homo sapiens, UniProt P41595); experiment: LeadProfilingScreen radioligand binding
Sequence of Serotonin (5-Hydroxytryptamine) 5-HT2B (P41595 whole entry): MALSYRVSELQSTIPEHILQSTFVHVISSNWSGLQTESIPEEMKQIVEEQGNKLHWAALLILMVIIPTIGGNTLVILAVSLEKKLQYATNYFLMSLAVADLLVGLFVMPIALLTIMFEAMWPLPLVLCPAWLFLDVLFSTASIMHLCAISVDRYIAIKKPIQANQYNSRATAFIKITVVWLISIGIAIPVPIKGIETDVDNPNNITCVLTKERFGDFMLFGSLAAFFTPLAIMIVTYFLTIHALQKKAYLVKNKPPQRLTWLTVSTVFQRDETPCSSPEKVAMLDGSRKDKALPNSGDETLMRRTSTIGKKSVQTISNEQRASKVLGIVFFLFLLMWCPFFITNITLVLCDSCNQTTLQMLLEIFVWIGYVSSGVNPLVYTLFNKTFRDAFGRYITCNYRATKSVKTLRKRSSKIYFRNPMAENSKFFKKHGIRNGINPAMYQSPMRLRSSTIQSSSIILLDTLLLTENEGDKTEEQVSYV

[3] = target: Serotonin (5-Hydroxytryptamine) 5-HT1A (Homo sapiens, UniProt P08908); experiment: LeadProfilingScreen radioligand binding
Sequence of Serotonin (5-Hydroxytryptamine) 5-HT1A (P08908 whole entry): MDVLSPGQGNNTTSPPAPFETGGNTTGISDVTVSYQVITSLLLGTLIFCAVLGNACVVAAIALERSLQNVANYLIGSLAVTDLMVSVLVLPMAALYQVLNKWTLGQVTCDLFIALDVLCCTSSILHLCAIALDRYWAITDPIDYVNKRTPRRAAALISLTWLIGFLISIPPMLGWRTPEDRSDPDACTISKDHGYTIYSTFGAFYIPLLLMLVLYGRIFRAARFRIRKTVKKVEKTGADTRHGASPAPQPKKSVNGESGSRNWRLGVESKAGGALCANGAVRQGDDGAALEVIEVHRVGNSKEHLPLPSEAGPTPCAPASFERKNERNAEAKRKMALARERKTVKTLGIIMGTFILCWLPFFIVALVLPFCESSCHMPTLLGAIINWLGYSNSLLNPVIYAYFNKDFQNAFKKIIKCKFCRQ

Neuropeptide Y Y1 = Neuropeptide Y Y1 (Homo sapiens, UniProt P25929); experiment: LeadProfilingScreen radioligand binding
Sequence of Neuropeptide Y Y1 (P25929 whole entry): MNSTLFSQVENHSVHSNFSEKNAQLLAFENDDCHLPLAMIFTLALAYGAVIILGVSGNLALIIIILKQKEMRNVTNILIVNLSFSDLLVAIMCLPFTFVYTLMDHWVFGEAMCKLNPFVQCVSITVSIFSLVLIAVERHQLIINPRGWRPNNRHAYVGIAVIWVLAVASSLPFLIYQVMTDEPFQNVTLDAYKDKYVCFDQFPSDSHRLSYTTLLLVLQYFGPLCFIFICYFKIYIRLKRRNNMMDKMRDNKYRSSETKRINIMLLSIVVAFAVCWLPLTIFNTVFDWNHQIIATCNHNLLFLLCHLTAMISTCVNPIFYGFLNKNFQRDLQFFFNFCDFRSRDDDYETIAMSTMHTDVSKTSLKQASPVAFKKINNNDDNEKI

Transporter, GABA = Transporter, GABA (Rattus norvegicus, UniProt P23978); experiment: LeadProfilingScreen radioligand binding
[4] = Distribution ratio female reproductive organs versus plasma after IV dosing; type: in vivo; details: C57Bl/6, mouse, female mice, 1 mg/kg IV; for Kp at 0.25 h: reproductive organs / plasma
Experimental: Samples were analyzed via electrospray ionization (ESI) LC-MS/MS on an AB Sciex 4500 (Foster City, CA) triple-quadrupole instrument that was coupled with an Agilent 1290 Infinity Binary Pump and multisampler (Santa Clara, CA) and concentrations (ng/mL or ng/g) were determined using a matrix-matched 10-point standard curve and then converted to nM concentrations. Quantitation of compounds was performed via AB Sciex Multiquant software using the raw analyte:IS peak area ratios. The typical detection range was 0.5 ng/mL to ≥5000 ng/mL utilizing a quadratic equation regression with 1/x² weighting. Correction for dilution of all tissue samples was performed postquantitation. The corrections for dilution in the extraction buffer employed correction factors specific to each tissue weight.
In-life phase–Compounds were formulated in PEG400:DMSO (4:1, v/v) at a concentration of 1 mg/mL and administered as a single 1 mg/kg dose (1 mL/kg) to female C57Bl/6 mice (n = 2–4; 30 g body weight) via intravenous (i.v.) injection. Blood samples were collected serially from a surgically implanted carotid artery catheter in each animal over multiple postadministration time points (0.25, 0.5, 1, 3, 6, and 24 h) into chilled, K2EDTA anticoagulant-fortified tubes and immediately placed on wet ice. The blood samples were stored at −80 °C until analysis by LC-MS/MS.
At the same time points, female reproductive organs were obtained by rapid dissection, rinsed with PBS, pooled by lots of 2 and immediately frozen in individual tissue collection boxes (dry ice). All tissues and blood samples were stored at −80 °C until analysis by LC-MS/MS.

[5] = Multispecies hepatocyte MetID; type: in vitro ADME, cynomolgus monkey; details: 4 h incubation with hepatocytes, 10 μM
Experimental: (§1) Metabolites were identified after preincubating each compound at a 10 μM final concentration with 2.5 × 10^5 hepatocytes from human, dog, cynomolgus monkey, and rat in 200 μL of Optiincubate buffer (BioIVT, Westbury, NY). […] After centrifugation, 60 μL of the supernatant was transferred to 60 μL of water for LC-MS analysis. Samples were analyzed using a Thermo Scientific Vanquish UHPLC consisting of a VH-P10-A pump, a VH-A10-A sampler module, a VH-C10-A column compartment, and the VF-D11-A UV detector coupled to an Orbitrap Fusion Lumos instrument with UVPD. A binary solvent system consisting of (A) water with 0.1% formic acid and (B) acetonitrile with 0.1% formic acid was used with an Accucore Vanquish C18+, 2.1 mm × 100 mm, 1.5 μm, UHPLC column maintained at 40 °C. The data generated by data-dependent acquisition via normal acquisition and AcquireX were processed manually with Thermo Scientific FreeStyle and assisted by Compound Discoverer 3.3.1.111 to aid in the structural assignments.

Adenosine A3 = Adenosine A3 (Homo sapiens, UniProt P0DMS8); experiment: LeadProfilingScreen radioligand binding
Opiate μ (OP3, MOP) = Opiate μ (OP3, MOP) (Homo sapiens, UniProt P35372); experiment: LeadProfilingScreen radioligand binding
Sequence of Opiate μ (OP3, MOP) (P35372 whole entry): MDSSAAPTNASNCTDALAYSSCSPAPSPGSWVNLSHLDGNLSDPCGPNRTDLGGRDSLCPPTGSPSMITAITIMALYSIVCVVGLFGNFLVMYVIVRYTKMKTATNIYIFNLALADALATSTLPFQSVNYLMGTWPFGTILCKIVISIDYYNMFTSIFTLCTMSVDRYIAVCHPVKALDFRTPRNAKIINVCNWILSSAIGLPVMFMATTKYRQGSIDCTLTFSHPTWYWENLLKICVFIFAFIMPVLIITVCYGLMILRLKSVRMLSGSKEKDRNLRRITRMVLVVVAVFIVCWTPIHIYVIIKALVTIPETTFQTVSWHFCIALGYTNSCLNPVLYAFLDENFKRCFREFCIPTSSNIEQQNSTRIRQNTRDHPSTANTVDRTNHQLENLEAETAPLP

Rolipram = experiment: LeadProfilingScreen radioligand binding; parameters: species or system rat
Dopamine D2S = Dopamine D2S (Homo sapiens, UniProt P14416); experiment: LeadProfilingScreen radioligand binding
Adrenergic β2 = Adrenergic β2 (Homo sapiens, UniProt P07550); experiment: LeadProfilingScreen radioligand binding
[6] = Multispecies hepatocyte MetID; type: in vitro ADME, rat; details: 4 h incubation with hepatocytes, 10 μM
Experimental: as §1

GABAA, Muscimol, Central = experiment: LeadProfilingScreen radioligand binding; parameters: species or system rat
Cannabinoid CB1 = Cannabinoid CB1 (Homo sapiens, UniProt P21554); experiment: LeadProfilingScreen radioligand binding
[7] = target: Transporter, Dopamine (DAT) (Homo sapiens, UniProt Q01959); experiment: LeadProfilingScreen radioligand binding
Neuropeptide Y Y2 = Neuropeptide Y Y2 (Homo sapiens, UniProt P49146); experiment: LeadProfilingScreen radioligand binding
Muscarinic M2 = Muscarinic M2 (Homo sapiens, UniProt P08172); experiment: LeadProfilingScreen radioligand binding
Sequence of Muscarinic M2 (P08172 whole entry): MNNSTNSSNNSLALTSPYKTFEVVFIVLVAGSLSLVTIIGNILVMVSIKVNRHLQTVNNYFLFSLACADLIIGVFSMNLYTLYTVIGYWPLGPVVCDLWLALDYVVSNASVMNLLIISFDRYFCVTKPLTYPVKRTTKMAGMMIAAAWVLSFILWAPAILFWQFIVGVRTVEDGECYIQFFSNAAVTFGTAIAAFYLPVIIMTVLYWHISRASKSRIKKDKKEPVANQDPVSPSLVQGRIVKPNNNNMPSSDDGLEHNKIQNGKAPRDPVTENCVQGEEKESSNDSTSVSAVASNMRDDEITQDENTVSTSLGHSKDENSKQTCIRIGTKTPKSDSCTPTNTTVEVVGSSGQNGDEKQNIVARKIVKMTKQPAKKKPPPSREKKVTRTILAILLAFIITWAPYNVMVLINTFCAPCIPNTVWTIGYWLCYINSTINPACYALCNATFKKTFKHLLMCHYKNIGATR

[8] = target: Transporter, Norepinephrine (NET) (Homo sapiens, UniProt P23975); experiment: LeadProfilingScreen radioligand binding
Sequence of Transporter, Norepinephrine (NET) (P23975 whole entry): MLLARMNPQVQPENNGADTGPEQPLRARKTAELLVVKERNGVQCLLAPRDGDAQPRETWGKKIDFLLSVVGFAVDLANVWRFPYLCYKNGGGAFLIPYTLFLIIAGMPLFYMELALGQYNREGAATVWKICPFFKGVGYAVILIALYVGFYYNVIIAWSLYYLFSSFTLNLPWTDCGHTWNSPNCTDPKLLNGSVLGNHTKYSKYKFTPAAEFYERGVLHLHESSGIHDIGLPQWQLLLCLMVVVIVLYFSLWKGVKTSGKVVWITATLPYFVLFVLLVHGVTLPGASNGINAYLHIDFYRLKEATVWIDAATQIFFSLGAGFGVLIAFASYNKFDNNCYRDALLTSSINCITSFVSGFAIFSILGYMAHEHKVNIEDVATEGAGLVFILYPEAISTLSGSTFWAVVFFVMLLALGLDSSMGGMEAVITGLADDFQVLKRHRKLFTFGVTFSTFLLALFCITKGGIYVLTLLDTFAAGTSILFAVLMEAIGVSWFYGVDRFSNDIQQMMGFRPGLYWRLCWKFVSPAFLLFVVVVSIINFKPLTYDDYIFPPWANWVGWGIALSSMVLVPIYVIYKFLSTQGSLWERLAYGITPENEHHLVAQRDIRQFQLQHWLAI

[9] = target: Epidermal Growth Factor (EGF) (Homo sapiens, UniProt P00533); experiment: LeadProfilingScreen radioligand binding
Glutamate, NMDA, Glycine = Glutamate, NMDA, Glycine (Rattus norvegicus, UniProt P35439); experiment: LeadProfilingScreen radioligand binding
Sequence of Glutamate, NMDA, Glycine (P35439 394-800 limits assumed): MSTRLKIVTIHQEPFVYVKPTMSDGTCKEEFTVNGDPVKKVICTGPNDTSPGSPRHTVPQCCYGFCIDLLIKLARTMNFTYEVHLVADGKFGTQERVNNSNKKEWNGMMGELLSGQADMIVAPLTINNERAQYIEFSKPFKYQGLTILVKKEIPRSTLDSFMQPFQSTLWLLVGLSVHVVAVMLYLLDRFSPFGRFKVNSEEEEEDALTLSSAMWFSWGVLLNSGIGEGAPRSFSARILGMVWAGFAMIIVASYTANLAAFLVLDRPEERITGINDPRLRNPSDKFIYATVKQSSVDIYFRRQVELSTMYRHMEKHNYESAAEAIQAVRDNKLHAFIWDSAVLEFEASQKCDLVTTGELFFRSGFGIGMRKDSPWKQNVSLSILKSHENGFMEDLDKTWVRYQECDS

hERG potassium channel = hERG potassium channel (Homo sapiens, UniProt Q12809); experiment: LeadProfilingScreen radioligand binding; details: probe [3H]Dofetilide
Androgen (Testosterone) = Androgen (Testosterone) (Homo sapiens, UniProt P10275); experiment: LeadProfilingScreen radioligand binding
Adenosine A2A = Adenosine A2A (Homo sapiens, UniProt P29274); experiment: LeadProfilingScreen radioligand binding
[10] = female reproductive organs (pooled), pooled organs, read-out: Reproductive Organs concentration
[11] = plasma, read-out: Plasma concentration

Row | Compound | inhibition at 10 µM (Opiate δ1 (OP1, DOP)) | % inhibition at 10 μM [1] | inhibition at 10 µM (Adrenergic α1D) | inhibition at 10 µM [2] | inhibition at 10 µM [3] | inhibition at 10 µM (Neuropeptide Y Y1) | inhibition at 10 µM (Transporter, GABA) | concentration at 0.25 h [4, 10] | concentration at 0.25 h [4, 11] | Kp at 0.25 h [4] | % of Parent Related Material, Cyno [5] | inhibition at 10 µM (Adenosine A3) | inhibition at 10 µM (Opiate μ (OP3, MOP)) | % inhibition at 10 μM (Rolipram) | inhibition at 10 µM (Dopamine D2S) | inhibition at 10 µM (Adrenergic β2) | % of Parent Related Material, Rat [6] | % inhibition at 10 μM (GABAA, Muscimol, Central) | inhibition at 10 µM (Cannabinoid CB1) | inhibition at 10 µM [7] | further results
1 | O=C(c1ccc(OCc2ccc(OC(F)(F)F)cc2)cc1)N1CCN(c2ccc(C(F)(F)F)cn2)CC1 [VU6032735] | 7% | 24% | 2% | -6% | -1% | -1% | -4% | 1070 ng/mL | 85.3 ng/mL | 12.7 | > 98% | 9% | 11% | 7% | -2% | 5% | > 98% | 0% | 32% | 26% | inhibition at 10 µM (Neuropeptide Y Y2): 3%; inhibition at 10 µM (Muscarinic M2): -10%; inhibition at 10 µM [8]: 30%; inhibition at 10 µM [9]: 5%; inhibition at 10 µM (Glutamate, NMDA, Glycine): -3%; inhibition at 10 µM (hERG potassium channel): 9%; inhibition at 10 µM (Androgen (Testosterone)): 1%; inhibition at 10 µM (Adenosine A2A): -6%
2 | Cc1cc(Cl)cc2sc(O[C@H]3CCN(C(=O)CCCS(=O)(=O)c4cccc(Br)c4)C[C@H]3F)nc12 [VU6047606] | 12% | 7% | 13% | 18% | -2% | -16% | 4% | 56.6 ng/mL | 121 ng/mL | 0.47 | 82.77% and > 82% | 43% | 22% | 19% | -7% | 5% | 90.93% and > 82% | 1% | 27% | 18% | inhibition at 10 µM (Neuropeptide Y Y2): 10%; inhibition at 10 µM (Muscarinic M2): -6%; inhibition at 10 µM [8]: 44%; inhibition at 10 µM [9]: 2%; inhibition at 10 µM (Glutamate, NMDA, Glycine): -1%; inhibition at 10 µM (hERG potassium channel): 72%; inhibition at 10 µM (Androgen (Testosterone)): 8%; inhibition at 10 µM (Adenosine A2A): 0%
